Test results: BindingDB's records for doi:10.7270/Q22F7KMG (Eli Lilly, 1995)

Key:
[1] = molecular target: T1, Dimer of Gag-Pol polyprotein [489-587] (Human immunodeficiency virus 1, UniProt P12497); assay: Protease Inhibition Assay; conditions: pH 5.5; 22 °C
T1 construct: 489-587
Source text: In the presence of HIV-l protease, the substrate is rapidly cleaved into two parts. The biotinylated amino terminal fragment binds to the avidin Pandex beads while the FITC-containing carboxy1 terminal fragment is removed through the membrane.

[2] = molecular target: T2, Gag-Pol polyprotein [489-587] (Human immunodeficiency virus 1, UniProt P04585)
T2 construct: 489-587

| SMILES | IC50 [1] | IC50 [2] |
| --- | --- | --- |
| CC(C)(C)NC(=O)[C@@H]1C[C@@H]2SCC[C@@H]2CN1C[C@@H](O)[C@H](Cc1ccccc1)NC(=O)[C@@H](CS(=O)(=O)c1ccc(F)cc1)NC(=O)C(F)(F)F [(3aR,6S,7aS)-N-tert-butyl-5-[(2R,3S)-3-[(2S)-3-[(4-fluorobenzene)sulfonyl]-2-(2,2,2-trifluoroacetamido)propanamido]-2-hydroxy-4-phenylbutyl]-octahydrothieno[3,2-c]pyridine-6-carboxamide] | < 0.2 nM | < 0.2 nM |
| CC(C)(C)NC(=O)[C@@H]1C[C@@H]2SCC[C@@H]2CN1C[C@@H](O)[C@H](Cc1ccccc1)NC(=O)[C@@H](CS(=O)(=O)c1ccc2ccccc2c1)NC(=O)C(F)(F)F [(3aR,6S,7aS)-N-tert-butyl-5-[(2R,3S)-2-hydroxy-3-[(2S)-3-(naphthalene-2-sulfonyl)-2-(2,2,2-trifluoroacetamido)propanamido]-4-phenylbutyl]-octahydrothieno[3,2-c]pyridine-6-carboxamide] | < 0.2 nM | < 0.2 nM |
| CC(C)(C)NC(=O)[C@@H]1C[C@@H]2SCC[C@@H]2CN1C[C@@H](O)[C@H](Cc1ccccc1)NC(=O)[C@@H](CS(=O)(=O)c1ccc2ccccc2c1)NS(C)(=O)=O [(3aR,6S,7aS)-N-tert-butyl-5-[(2R,3S)-2-hydroxy-3-[(2S)-2-methanesulfonamido-3-(naphthalene-2-sulfonyl)propanamido]-4-phenylbutyl]-octahydrothieno[3,2-c]pyridine-6-carboxamide] | < 0.2 nM | < 0.2 nM |
